Results as given in patent publication US7268152B2, “Glucocorticoid mimetics, methods of making them, pharmaceutical compositions, and uses thereof” (Boehringer Ingelheim Pharmaceuticals, Inc., priority 2002, dated 2007).

Tests used:
[1] = biological target: T1, human glucocorticoid receptor (GR) complex (Homo sapiens, UniProt P04150); experiment: Glucocorticoid receptor competitive binding assay (fluorescence polarization); details: competition with TAMRA-labeled dexamethasone
T1 construct: made in house; host or cells: insect expression system (baculovirus lysate)
T1 sequence (P04150 1-777): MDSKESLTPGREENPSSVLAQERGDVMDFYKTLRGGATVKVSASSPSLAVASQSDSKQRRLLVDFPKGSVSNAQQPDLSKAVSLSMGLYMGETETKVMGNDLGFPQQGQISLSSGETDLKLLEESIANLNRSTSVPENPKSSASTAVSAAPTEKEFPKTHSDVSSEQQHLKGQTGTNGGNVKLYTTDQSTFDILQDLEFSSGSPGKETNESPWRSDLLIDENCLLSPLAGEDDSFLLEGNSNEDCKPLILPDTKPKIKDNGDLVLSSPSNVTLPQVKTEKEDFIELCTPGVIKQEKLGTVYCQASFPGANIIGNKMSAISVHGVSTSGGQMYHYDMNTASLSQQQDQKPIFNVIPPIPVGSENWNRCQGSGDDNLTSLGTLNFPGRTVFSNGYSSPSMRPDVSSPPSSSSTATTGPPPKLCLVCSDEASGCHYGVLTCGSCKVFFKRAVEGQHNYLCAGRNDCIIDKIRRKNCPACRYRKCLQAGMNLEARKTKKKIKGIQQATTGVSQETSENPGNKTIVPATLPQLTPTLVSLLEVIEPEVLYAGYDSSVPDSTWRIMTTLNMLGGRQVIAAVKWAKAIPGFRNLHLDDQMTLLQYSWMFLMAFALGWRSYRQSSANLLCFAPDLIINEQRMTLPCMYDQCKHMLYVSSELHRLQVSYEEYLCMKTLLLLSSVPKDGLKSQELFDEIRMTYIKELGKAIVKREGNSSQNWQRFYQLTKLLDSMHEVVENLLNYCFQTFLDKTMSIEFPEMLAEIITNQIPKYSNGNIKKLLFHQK
Summary of the method: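 FP competition against 15 nM TAMRA-labeled dexamethasone (stock added) for GR complex in baculovirus insect-cell lysate, buffer 10 mM TES, 50 mM KCl, 20 mM molybdate, pH 7.4 with 1 mM DTT. Incubated 1 h at room temperature, read at ex 550/em 580 nm; IC50 from 4-parameter logistic fit.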

[2] = system: glucocorticoid receptor; experiment: One or more of the above assays (GR binding and GR cell assays; not specified which); format: cell-based; details: in one or more of the above assays
Description: This assay uses fluorescence polarization (FP) to quantitate the ability of test compounds to compete with tetramethyl rhodamine (TAMRA)-labeled dexamethasone for binding to a human glucocorticoid receptor (GR) complex prepared from an insect expression system. The assay buffer was: 10 mM TES, 50 mM KCl, 20 mM Na2MoO4.2H2O, 1.5 mM EDTA, 0.04% w/v CHAPS, 10% v/v glycerol, 1 mM dithiothreitol, pH 7.4. Test compounds were dissolved to 1 mM in neat DMSO and then further diluted to 10×assay concentration in assay buffer supplemented with 10% v/v DMSO. Test compounds were serially diluted at 10×assay concentrations in 10% DMSO-containing buffer in 96-well polypropylene plates. […] Positive controls were reaction mixtures containing no test compound; negative controls (blanks) were reaction mixtures containing 0.7 μM to 2 μM dexamethasone. […] IC50 values were determined by iterative non-linear curve fitting of the FP signal data to a 4-parameter logistic equation.
B. Glucocorticoid Receptor Cell Assays
1. Induction of Aromatase in Fibroblasts (Cell Assay for Transactivation)
Dexamethasone, a synthetic ligand to the glucocorticoid receptor (GR), induces expression of aromatase in human foreskin fibroblast cells. The activity of aromatase is measured by the conversion of testosterone to estradiol in culture media.
On the day of the experiment, the media in the wells is replaced with fresh media. Cells are treated with test compounds to final concentrations of 10^−5 M to 10 ^−8 M, and testosterone to a final concentration of 300 ng/mL. Each well has a total volume of 100 μL. Samples are made in duplicates. Control wells include: (a) wells that receive testosterone only, and (b) wells that receive testosterone plus 2 μM of dexamethasone to provide maximum induction of aromatase. Plates are incubated at 37° C. overnight (15 to 18 hours), and supernatants are harvested at the end of incubation. […] The amount of estradiol is inversely proportional to the ELISA signals in each well. The extent of aromatase induction by test compounds is expressed as a relative percentage to dexamethasone. EC50 values of test compounds are derived by non-linear curve fitting.
2. Inhibition of IL-6 Production in Fibroblasts (Cell Assay for Transrepression)
Human foreskin fibroblast cells produce IL-6 in response to stimulation by pro-inflammatory cytokine IL-1.
On the next day, media in the wells is replaced with fresh media. Cells are treated with IL-1 (rhIL-1α, R&D Systems Cat. No. 200-LA) to a final concentration of 1 ng/mL, and with test compounds to final concentrations of 10 ^−5 M to 10 ^−8 M, in a total volume of 200 μL per well. Samples are done in duplicates. […] Positive control wells receive IL-1 only and represent maximum (or 100%) amount of IL-6 production. Plates are incubated at 37° C. overnight (15 to 18 hours), and supernatants are harvested at the end of incubation. IL-6 levels in the supernatants are determined by the ELISA kits for IL-6 (MedSystems Diagnostics GmbH, Vienna, Austria, Cat. No. BMS213TEN) according to manufacture's instructions. The extent of inhibition of IL-6 by test compounds is expressed in percentage relative to positive controls. IC50 values of test compounds are derived by non-linear curve fitting.
Evaluation of agonist or antagonist activity of compounds binding to the glucocorticoid receptor may be determined by any of the assays.
3. Modulation of Tyrosine Aminotransferase (TAT) Induction in Rat Hepatoma Cells
Testing of compounds for agonist or antagonist activity in induction of tyrosine aminotransferase (TAT) in rat hepatoma cells.
H4-II-E-C3 cells were incubated overnight in 96 well plates (20,000 cells/100 μL/well) in MEM medium containing 10% heat inactivated FBS and 1% nonessential amino acids. On the next day, cells were stimulated with the indicated concentrations of dexamethasone or test compound (dissolved in DMSO, final DMSO concentration 0.2%) for 18 hours. Control cells were treated with 0.2% DMSO.

Row | IC50 [1] [nM] | Structure (SMILES) | activity as agonists of the glucocorticoid receptor function [2]
1 | ≤ 100 | COc1ccc(F)cc1C(C)(C)CC(O)(Cc1cc(Br)cc(Br)c1)C(F)(F)F (centres unmarked) [2-(3,5-Dibromobenzyl)-1,1,1-trifluoro-4-(5-fluoro-2-methoxyphenyl)-4-methylpentan-2-ol] | activity as agonists
2 | ≤ 100 | COc1ccc(F)cc1C(C)(C)CC(O)(Cc1cc(C)cc(C)c1)C(F)(F)F (centres unmarked) [2-(3,5-Dimethylbenzyl)-1,1,1-trifluoro-4-(5-fluoro-2-methoxyphenyl)-4-methylpentan-2-ol] | activity as agonists
3 | ≤ 100 | COc1ccc(F)cc1C(C)(C)CC(O)(Cc1cc(C(F)(F)F)cc(Cl)c1F)C(F)(F)F (centres unmarked) [2-(3-Chloro-2-fluoro-5-trifluoromethylbenzyl)-1,1,1-trifluoro-4-(5-fluoro-2-methoxyphenyl)-4-methylpentan-2-ol] | activity as agonists
4 | ≤ 100 | COc1ccc(F)cc1C(C)(C)CC(O)(Cc1cc(C)cc(Cl)c1)C(F)(F)F (centres unmarked) [2-(3-Chloro-5-methylbenzyl)-1,1,1-trifluoro-4-(5-fluoro-2-methoxyphenyl)-4-methylpentan-2-ol] | activity as agonists
5 | ≤ 100 | COc1ccc(F)cc1C(C)(C)CC(O)(Cc1cc(Br)cc(C)c1F)C(F)(F)F (centres unmarked) [2-(5-Bromo-2-fluoro-3-methylbenzyl)-1,1,1-trifluoro-4-(5-fluoro-2-methoxyphenyl)-4-methylpentan-2-ol] | activity as agonists
6 | ≤ 100 | CC(C)(CC(O)(Cc1cc(Br)cc(Br)c1)C(F)(F)F)c1cc(F)ccc1O (centres unmarked) [2-[3-(3,5-Dibromobenzyl)-4,4,4-trifluoro-3-hydroxy-1,1-dimethylbutyl]-4-fluorophenol] | activity as agonists
7 | ≤ 100 | Cc1cc(Cl)cc(CC(O)(CC(C)(C)c2cc(F)ccc2O)C(F)(F)F)c1 (centres unmarked) [2-[3-(3-Chloro-5-methylbenzyl)-4,4,4-trifluoro-3-hydroxy-1,1-dimethylbutyl]-4-fluorophenol] | activity as agonists
8 | ≤ 100 | CC(C)(CC(O)(Cc1ccc(C#N)cc1Cl)C(F)(F)F)c1cccc2c1OCC2 (centres unmarked) [3-Chloro-4-[4-(2,3-dihydrobenzofuran-7-yl)-2-hydroxy-4-methyl-2-trifluoromethylpentyl]benzonitrile] | activity as agonists
9 | ≤ 100 | COc1ccc(F)cc1C(C)(C)CC(O)(Cc1ccc(C#N)cc1Cl)C(F)(F)F (centres unmarked) [3-Chloro-4-[4-(5-fluoro-2-methoxyphenyl)-2-hydroxy-4-methyl-2-trifluoromethylpentyl]benzonitrile] | activity as agonists
10 | ≤ 100 | Cc1cc(C)cc(CC(O)(CC(C)(C)c2cccc3c2OCC3)C(F)(F)F)c1 (centres unmarked) [4-(2,3-Dihydrobenzofuran-7-yl)-2-(3,5-dimethylbenzyl)-1,1,1-trifluoro-4-methylpentan-2-ol] | activity as agonists

Second part, the compound before the results:

Row | Structure (SMILES) | IC50 [1] [nM] | activity as agonists of the glucocorticoid receptor function [2]
11 | CC(C)(CC(O)(Cc1cc(C(F)(F)F)cc(Cl)c1F)C(F)(F)F)c1cc(Br)cc2c1OCC2 (centres unmarked) [4-(5-Bromo-2,3-dihydrobenzofuran-7-yl)-2-(3-chloro-2-fluoro-5-trifluoromethylbenzyl)-1,1,1-trifluoro-4-methylpentan-2-ol] | – | activity as agonists
12 | CC(C)(CC(O)(Cc1ccc(C#N)c2ccccc12)C(F)(F)F)c1cccc2c1OCC2 (centres unmarked) [4-[4-(2,3-Dihydrobenzofuran-7-yl)-2-hydroxy-4-methyl-2-trifluoromethylpentyl]naphthalene-1-carbonitrile] | – | activity as agonists
13 | CC(C)(CC(O)(Cc1ccc(C#N)cc1Cl)C(F)(F)F)c1cc(Br)cc2c1OCC2 (centres unmarked) [4-[4-(5-Bromo-2,3-dihydrobenzofuran-7-yl)-2-hydroxy-4-methyl-2-trifluoromethylpentyl]-3-chlorobenzonitrile] | – | activity as agonists
14 | COc1cc(F)c(Br)cc1C(C)(C)CC(O)(Cc1ccc(C#N)cc1Cl)C(F)(F)F (centres unmarked) [4-[4-(5-Bromo-4-fluoro-2-methoxyphenyl)-2-hydroxy-4-methyl-2-trifluoromethylpentyl]-3-chlorobenzonitrile] | – | activity as agonists
15 | Cc1cc(CC(O)(CC(C)(C)c2cc(F)ccc2O)C(F)(F)F)cc(C)c1C#N (centres unmarked) [4-[4-(5-Fluoro-2-hydroxyphenyl)-2-hydroxy-4-methyl-2-trifluoromethylpentyl]-2,6-dimethylbenzonitrile] | – | activity as agonists
16 | COc1ccc(F)cc1C(C)(C)CC(O)(Cc1cc(C)c(C#N)c(C)c1)C(F)(F)F (centres unmarked) [4-[4-(5-Fluoro-2-methoxyphenyl)-2-hydroxy-4-methyl-2-trifluoromethylpentyl]-2,6-dimethylbenzonitrile] | – | activity as agonists
17 | COc1ccc(F)cc1C(C)(C)CC(O)(Cc1ccc(C#N)c2ccccc12)C(F)(F)F (centres unmarked) [4-[4-(5-Fluoro-2-methoxyphenyl)-2-hydroxy-4-methyl-2-trifluoromethylpentyl]naphthalene-1-carbonitrile] | – | activity as agonists
18 | CC(C)(CC(O)(Cc1ccc(C#N)cc1Cl)C(F)(F)F)c1cc(C#N)cc2c1OCC2 (centres unmarked) [7-[3-(2-Chloro-4-cyanobenzyl)-4,4,4-trifluoro-3-hydroxy-1,1-dimethylbutyl]-2,3-dihydrobenzofuran-5-carbonitrile] | – | activity as agonists
19 | CC(C)(CC(O)(Cc1ccc(C(=O)C2CC2)cc1Cl)C1CC1)c1cccc2c1OCC2 (centres unmarked) [{3-Chloro-4-[2-cyclopropyl-4-(2,3-dihydrobenzofuran-7-yl)-2-hydroxy-4-methylpentyl]phenyl}cyclopropylmethanone] | – | activity as agonists
